Drawing on patent US20260022142A1, “MACROCYCLIC IMMUNOMODULATORS” (Bristol-Myers Squibb Company, priority 2022, published 2026), this text covers IC50 for 13 molecules.

Numbered stars: 1 amine (or outer) side, 2 acyl side, 3 side chain; on linkers, the order of the positions; unused ones are H or OH. Bridge positions count the residues as written; N and C are the ends. Square brackets hold non-standard residues; d marks the D form. Peptide text beside a SMILES is read from it. * marks the point of attachment. Phe(4-CH2CH2COOH) = N[C@@H](Cc1ccc(CCC(=O)O)cc1)C(=O)O; Phe(4-COOH) = N[C@@H](Cc1ccc(C(=O)O)cc1)C(=O)O; Bip = N[C@@H](Cc1ccc(-c2ccccc2)cc1)C(=O)O; Phe(3-Me) = Cc1cccc(C[C@H](N)C(=O)O)c1; Val(3-OH) = CC(C)(O)[C@H](N)C(=O)O; X6 = O=C(Cc1ccc(CN[*:1])cc1)[*:2]; dAla(cPr) = N[C@H](CC1CC1)C(=O)O; 4Pal = N[C@@H](Cc1ccncc1)C(=O)O; Cha = N[C@@H](CC1CCCCC1)C(=O)O; Cit = NC(=O)NCCC[C@H](N)C(=O)O; Carboxymethyl = O=C(O)C*; Orn = NCCC[C@H](N)C(=O)O; Aun = NCCCCCCCCCCC(=O)O; Dab = NCC[C@H](N)C(=O)O; Dap = NC[C@H](N)C(=O)O; AEEA = NCCOCCOCC(=O)O; Ac3c = NC1(C(=O)O)CC1

This assay deals with T1, PD-1/PD-L1 interaction (PE-labeled human PD-L1-Ig binding to Jurkat cell line over-expressing human PD-1) (Homo sapiens, UniProt Q15116).
T1 construct: expressed in transfected cells; host or cells: Jurkat
T1 sequence (Q15116 25-288): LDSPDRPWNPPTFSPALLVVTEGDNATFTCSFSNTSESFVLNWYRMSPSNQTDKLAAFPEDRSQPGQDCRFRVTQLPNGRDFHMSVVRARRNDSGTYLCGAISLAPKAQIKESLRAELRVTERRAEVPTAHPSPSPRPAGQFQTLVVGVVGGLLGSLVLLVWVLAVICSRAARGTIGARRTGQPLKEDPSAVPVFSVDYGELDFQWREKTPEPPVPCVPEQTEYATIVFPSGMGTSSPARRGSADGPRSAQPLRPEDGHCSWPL
Description: Jurkat-PD-1 Cell Binding High-Content Screening Assay (CBA). The class given is cell-based. The settings on record: Jurkat cell line over-expressing human PD-1; PE-labeled PD-L1-Ig 20 nM final; read-out: Jurkat hPD1-PDL1 IC50. The method in brief: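 Jurkat-hPD-1 cells, DMEM/10% FCS; cpd 2 h 37° C; PE-PD-L1-Ig 20 nM final, 1 h; 4% PFA fix + Hoechst 33342, 3× dPBS wash; high-content imaging read-out.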
What is called IC50 is the concentration that inhibits the measured activity by half. In the case of `Cc1cccc(C[C@@H]2NC(=O)[C@H](CC(=O)O)NC(=O)[C@H](Cc3ccc(OCC(=O)O)cc3)NC(=O)[C@H](CN)NC(=O)CSC[C@@H](C(=O)N[C@@H](CCCCN)C(=O)NCc3ccc(CC(=O)NCCCCCCCCCCC(=O)O)cc3)NC(=O)[C@H](CN)NC(=O)[C@H](C(C)C)NC(=O)[C@H](CC3CCCCC3)NC(=O)[C@H](CCN)NC(=O)[C@@H](CC(C)C)NC(=O)[C@H](CCCN)NC(=O)[C@H](C(C)C)NC(=O)[C@H](Cc3ccc(-c4ccccc4)cc3)NC(=O)[C@H](C(C)C)NC2=O)c1` [Compound 2012] ({CH2CO}-[Dap]Y(Carboxymethyl)D[Phe(3-Me)]V[Bip]V[Orn][dL][Dab][Cha]V[Dap]CK[X6][Aun]-OH; thioether N-14), the half-maximal inhibitory concentration (IC50) is 0.046 µM. In the case of `CC[C@H](C)[C@@H]1NC(=O)[C@H](Cc2ccc(-c3ccccc3)cc2)NC(=O)[C@H](C(C)C)NC(=O)[C@H](Cc2c[nH]c3ccccc23)NC(=O)[C@H](CC(=O)O)NC(=O)[C@H](Cc2ccc(OCC(=O)O)cc2)NC(=O)[C@H](Cc2ccncc2)NC(=O)CSC[C@@H](C(=O)N[C@@H](CCCN)C(=O)NCCOCCOCC(=O)NCc2ccc(CC(=O)NCCCCCCCCCCC(=O)O)cc2)NC(=O)[C@H](CN)NC(=O)[C@H](C(C)C)NC(=O)[C@H](CC(C)C)NC(=O)[C@H](CCN)NC(=O)[C@@H](CC(C)C)NC(=O)[C@H](CCCN)NC1=O` [Compound 2014] ({CH2CO}-[4Pal]Y(Carboxymethyl)DWV[Bip]I[Orn][dL][Dab]LV[Dap]C[Orn][AEEA][X6][Aun]-OH; thioether N-14), the IC50 amounted to 0.033 µM. On to `Cc1cccc(C[C@@H]2NC(=O)[C@H](CC(=O)O)NC(=O)[C@H](Cc3ccc(OCC(=O)O)cc3)NC(=O)[C@H](CN)NC(=O)CSC[C@@H](C(=O)NC3(C(=O)N[C@@H](CCCN)C(=O)N[C@H](CO)C(=O)NCCCCCCCCCCC(=O)O)CC3)NC(=O)[C@H]([C@@H](C)O)NC(=O)[C@H](C(C)C)NC(=O)[C@H](CC3CCCCC3)NC(=O)[C@H](CCN)NC(=O)[C@@H](CC(C)C)NC(=O)[C@H](CCCN)NC(=O)[C@H](CCCNC(N)=O)NC(=O)[C@H](Cc3ccc(-c4ccccc4)cc3)NC(=O)[C@H](C(C)C)NC2=O)c1` [Compound 2015] ({CH2CO}-[Dap]Y(Carboxymethyl)D[Phe(3-Me)]V[Bip][Cit][Orn][dL][Dab][Cha]VTC[Ac3c][Orn][dS][Aun]-OH; thioether N-14), for which the concentration for half-maximal inhibition (IC50) amounted to 0.0198 µM.

Take `Cc1cccc(C[C@@H]2NC(=O)[C@H](CC(=O)O)NC(=O)[C@H](Cc3ccc(OCC(=O)O)cc3)NC(=O)[C@H](CN)NC(=O)CSC[C@@H](C(=O)N[C@@H](C)C(=O)N[C@@H](CCCN)C(=O)N[C@H](CO)C(=O)NCCCCCCCCCCC(=O)O)NC(=O)[C@H]([C@@H](C)O)NC(=O)[C@H](C(C)C)NC(=O)[C@H](CC3CCCCC3)NC(=O)[C@H](CCN)NC(=O)[C@@H](CC(C)C)NC(=O)[C@H](CCCN)NC(=O)[C@H](CCCNC(=N)N)NC(=O)[C@H](Cc3ccc(-c4ccccc4)cc3)NC(=O)[C@H](C(C)C)NC2=O)c1` [Compound 2016] ({CH2CO}-[Dap]Y(Carboxymethyl)D[Phe(3-Me)]V[Bip]R[Orn][dL][Dab][Cha]VTCA[Orn][dS][Aun]-OH; thioether N-14): the half-maximal inhibitory concentration (IC50) stood at 0.0176 µM. Consider `Cc1cccc(C[C@@H]2NC(=O)[C@H](CC(=O)O)NC(=O)[C@H](Cc3ccc(OCC(=O)O)cc3)NC(=O)[C@H](CN)NC(=O)CSC[C@@H](C(=O)N[C@@H](CCN)C(=O)NCCOCCOCC(=O)NCCCCCCCCCCC(=O)O)NC(=O)[C@@H](CO)NC(=O)[C@H](C(C)C)NC(=O)[C@H](CC3CCCCC3)NC(=O)[C@H](CCN)NC(=O)[C@@H](CC(C)C)NC(=O)[C@H](CCCN)NC(=O)[C@H](C(C)C)NC(=O)[C@H](Cc3ccc(-c4ccccc4)cc3)NC(=O)[C@H](Cc3ccc(O)cc3)NC2=O)c1` [Compound 2017] ({CH2CO}-[Dap]Y(Carboxymethyl)D[Phe(3-Me)]Y[Bip]V[Orn][dL][Dab][Cha]V[dS]C[Dab][AEEA][Aun]-OH; thioether N-14), for which the IC50 stood at 0.0193 µM. Next, `CC(C)C[C@@H]1NC(=O)[C@H](Cc2c[nH]c3ccccc23)NC(=O)[C@H](CC(=O)O)NC(=O)[C@H](Cc2ccc(OCC(=O)O)cc2)NC(=O)[C@H](CN)NC(=O)CSC[C@@H](C(=O)N[C@@H](CCN)C(=O)NCCCCCCCCCCC(=O)O)NC(=O)[C@@H](CO)NC(=O)[C@H](C(C)C)NC(=O)[C@H](CC2CCCCC2)NC(=O)[C@H](CCN)NC(=O)[C@@H](CC(C)C)NC(=O)[C@H](CCCN)NC(=O)[C@H](C(C)C)NC(=O)[C@H](Cc2ccc(-c3ccccc3)cc2)NC1=O` [Compound 2018] ({CH2CO}-[Dap]Y(Carboxymethyl)DWL[Bip]V[Orn][dL][Dab][Cha]V[dS]C[Dab][Aun]-OH; thioether N-14): 0.0404 µM. Turning to `CC(C)C[C@@H]1NC(=O)[C@H](Cc2c[nH]c3ccccc23)NC(=O)[C@H](CC(=O)O)NC(=O)[C@H](Cc2ccc(C(=O)O)cc2)NC(=O)[C@H](Cc2ccc(CCC(=O)O)cc2)NC(=O)CSC[C@@H](C(=O)N[C@@H](CCN)C(=O)NCCCCCCCCCCC(=O)O)NC(=O)[C@@H](CO)NC(=O)[C@H](C(C)C)NC(=O)[C@H](CC2CCCCC2)NC(=O)[C@H](CCN)NC(=O)[C@@H](CC(C)C)NC(=O)[C@H](CCCN)NC(=O)[C@H](C(C)C)NC(=O)[C@H](Cc2ccc(-c3ccccc3)cc2)NC1=O` [Compound 2019] ({CH2CO}-[Phe(4-CH2CH2COOH)][Phe(4-COOH)]DWL[Bip]V[Orn][dL][Dab][Cha]V[dS]C[Dab][Aun]-OH; thioether N-14), the IC50 was found to be 0.0499 µM. As for `Cc1cccc(C[C@@H]2NC(=O)[C@H](CC(=O)O)NC(=O)[C@H](Cc3ccc(OCC(=O)O)cc3)NC(=O)[C@H](CN)NC(=O)CSC[C@@H](C(=O)N[C@@H](CC(=O)O)C(=O)NCCOCCOCC(=O)NCCCCCCCCCCC(=O)O)NC(=O)[C@H](CCCN)NC(=O)[C@H](C(C)C)NC(=O)[C@H](CC3CCCCC3)NC(=O)[C@H](CCN)NC(=O)[C@@H](CC(C)C)NC(=O)[C@H](CCCN)NC(=O)[C@H](CCCNC(N)=O)NC(=O)[C@H](Cc3ccc(-c4ccccc4)cc3)NC(=O)[C@H](C(C)C)NC2=O)c1` [Compound 2020] ({CH2CO}-[Dap]Y(Carboxymethyl)D[Phe(3-Me)]V[Bip][Cit][Orn][dL][Dab][Cha]V[Orn]CD[AEEA][Aun]-OH; thioether N-14), the IC50 came to 0.0105 µM. Turning to `Cc1cccc(C[C@@H]2NC(=O)[C@H](CC(=O)O)NC(=O)[C@H](Cc3ccc(OCC(=O)O)cc3)NC(=O)[C@H](CN)NC(=O)CSC[C@@H](C(=O)N[C@@H](CC(=O)O)C(=O)NCCOCCOCC(=O)NCCCCCCCCCCC(=O)O)NC(=O)[C@@H](CO)NC(=O)[C@H](C(C)C)NC(=O)[C@H](CC3CCCCC3)NC(=O)[C@H](CCN)NC(=O)[C@@H](CC(C)C)NC(=O)[C@H](CCCN)NC(=O)[C@H](CCCNC(N)=O)NC(=O)[C@H](Cc3ccc(-c4ccccc4)cc3)NC(=O)[C@H](C(C)C)NC2=O)c1` [Compound 2021] ({CH2CO}-[Dap]Y(Carboxymethyl)D[Phe(3-Me)]V[Bip][Cit][Orn][dL][Dab][Cha]V[dS]CD[AEEA][Aun]-OH; thioether N-14), the IC50 worked out at 0.0308 µM. Next, `Cc1cccc(C[C@@H]2NC(=O)[C@H](CC(=O)O)NC(=O)[C@H](Cc3ccc(OCC(=O)O)cc3)NC(=O)[C@H](Cc3ccncc3)NC(=O)CSC[C@@H](C(=O)N[C@@H](CCN)C(=O)NCCOCCOCC(=O)NCCCCCCCCCCC(=O)O)NC(=O)[C@H](CN)NC(=O)[C@H](C(C)(C)O)NC(=O)[C@H](CC3CCCCC3)NC(=O)[C@H](CCN)NC(=O)[C@@H](CC(C)C)NC(=O)[C@H](CCCN)NC(=O)[C@H](Cc3ccc(OCC(=O)O)cc3)NC(=O)[C@H](Cc3ccc(-c4ccccc4)cc3)NC(=O)[C@H](Cc3ccc(OCC(=O)O)cc3)NC2=O)c1` [Compound 2022] ({CH2CO}-[4Pal]Y(Carboxymethyl)D[Phe(3-Me)]Y(Carboxymethyl)[Bip]Y(Carboxymethyl)[Orn][dL][Dab][Cha][Val(3-OH)][Dap]C[Dab][AEEA][Aun]-OH; thioether N-14): 0.0595 µM.

Turning to `Cc1cccc(C[C@@H]2NC(=O)[C@H](CC(=O)O)NC(=O)[C@H](Cc3ccc(OCC(=O)O)cc3)NC(=O)[C@H](CN)NC(=O)CSC[C@@H](C(=O)N[C@@H](CCN)C(=O)NCCOCCOCC(=O)NCCCCCCCCCCC(=O)O)NC(=O)[C@H](CO)NC(=O)[C@H](C(C)(C)O)NC(=O)[C@H](CC3CCCCC3)NC(=O)[C@H](CCN)NC(=O)[C@@H](CC(C)C)NC(=O)[C@H](CCCN)NC(=O)[C@H](Cc3ccc(OCC(=O)O)cc3)NC(=O)[C@H](Cc3ccc(-c4ccccc4)cc3)NC(=O)[C@H](Cc3ccc(OCC(=O)O)cc3)NC2=O)c1` [Compound 2023] ({CH2CO}-[Dap]Y(Carboxymethyl)D[Phe(3-Me)]Y(Carboxymethyl)[Bip]Y(Carboxymethyl)[Orn][dL][Dab][Cha][Val(3-OH)]SC[Dab][AEEA][Aun]-OH; thioether N-14), the IC50 worked out at 0.0102 µM. Take `Cc1cccc(C[C@@H]2NC(=O)[C@H](CC(=O)O)NC(=O)[C@H](Cc3ccc(OCC(=O)O)cc3)NC(=O)[C@H](CN)NC(=O)CSC[C@@H](C(=O)N[C@@H](CCN)C(=O)NCCCCCCCCCCC(N)=O)NC(=O)[C@H]([C@@H](C)O)NC(=O)[C@H](C(C)C)NC(=O)[C@H](CC3CCCCC3)NC(=O)[C@H](CCN)NC(=O)[C@@H](CC(C)C)NC(=O)[C@H](CCCN)NC(=O)[C@H](CCCNC(=N)N)NC(=O)[C@H](Cc3ccc(-c4ccccc4)cc3)NC(=O)[C@H](C(C)C)NC2=O)c1` [Compound 2025] ({CH2CO}-[Dap]Y(Carboxymethyl)D[Phe(3-Me)]V[Bip]R[Orn][dL][Dab][Cha]VTC[Dab][Aun]-NH2; thioether N-14): the half-maximal inhibitory concentration (IC50) is 0.0205 µM.

For `Cc1cccc(C[C@@H]2NC(=O)[C@H](CC(=O)O)NC(=O)[C@H](Cc3ccc(OCC(=O)O)cc3)NC(=O)[C@H](CN)NC(=O)CSC[C@@H](C(=O)N[C@@H](CCN)C(=O)NCCCCCCCCCCC(=O)O)NC(=O)[C@H](CCCCN)NC(=O)[C@H](C(C)C)NC(=O)[C@H](CC3CCCCC3)NC(=O)[C@H](CCN)NC(=O)[C@@H](CC3CC3)NC(=O)[C@H](CCCN)NC(=O)[C@H](C(C)C)NC(=O)[C@H](Cc3ccc(-c4ccccc4)cc3)NC(=O)[C@H](C(C)C)NC2=O)c1` [Compound 2026] ({CH2CO}-[Dap]Y(Carboxymethyl)D[Phe(3-Me)]V[Bip]V[Orn][dAla(cPr)][Dab][Cha]VKC[Dab][Aun]-OH; thioether N-14), the IC50 turned out to be 0.0102 µM.
